The target in one assay is T1, RNR (RNR1:RNR2 1:1) (Homo sapiens, UniProt P23921).
T1 sequence (P23921 1-792): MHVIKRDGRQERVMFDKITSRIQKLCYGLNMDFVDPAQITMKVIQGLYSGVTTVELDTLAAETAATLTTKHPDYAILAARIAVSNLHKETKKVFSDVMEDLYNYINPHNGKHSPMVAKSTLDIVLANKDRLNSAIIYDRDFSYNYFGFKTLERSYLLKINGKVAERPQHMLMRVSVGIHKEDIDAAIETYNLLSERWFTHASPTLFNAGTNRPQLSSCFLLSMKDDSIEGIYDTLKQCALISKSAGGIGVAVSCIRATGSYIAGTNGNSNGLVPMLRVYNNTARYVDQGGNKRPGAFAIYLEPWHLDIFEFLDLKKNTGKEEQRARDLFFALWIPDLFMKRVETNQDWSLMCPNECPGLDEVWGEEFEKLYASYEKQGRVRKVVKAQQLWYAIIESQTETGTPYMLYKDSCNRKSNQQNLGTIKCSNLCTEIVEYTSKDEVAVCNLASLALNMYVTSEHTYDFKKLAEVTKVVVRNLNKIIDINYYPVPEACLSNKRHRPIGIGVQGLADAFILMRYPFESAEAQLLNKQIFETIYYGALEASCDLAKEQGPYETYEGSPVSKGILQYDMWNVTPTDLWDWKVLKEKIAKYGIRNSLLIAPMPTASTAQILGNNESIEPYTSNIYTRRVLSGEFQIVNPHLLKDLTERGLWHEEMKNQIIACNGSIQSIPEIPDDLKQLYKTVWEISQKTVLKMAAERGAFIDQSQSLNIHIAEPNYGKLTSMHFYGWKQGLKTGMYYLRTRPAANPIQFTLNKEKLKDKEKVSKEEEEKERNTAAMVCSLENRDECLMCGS
The assay can be described thus: RNR enzyme activity, rapid-fire mass spectrometry (RF/MS) assay. It is filed as biochemical. Particulars: [RNR] 50 nM, 1:1 RNR1:RNR2; CDP 5 μM; ATP 1 mM; 37° C., 45 min; compounds screened up to 50 μM. The procedure, abridged:
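Human RNR (50 nM final, RNR1:RNR2 1:1) pre-incubated 15 min at room temperature, then reacted 45 min at 37 °C with 5 μM CDP and 1 mM ATP, no NADPH. Reaction quenched with 6% HCOOH; product quantified by rapid-fire mass spectrometry.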

Assay [1] has as its system pCHK1 (S345) in Colo320 DM cells. As to the kind of experiment: Alphalisa assay, detection of pCHK1 (S345) in Colo320 DM cells. Format: cell-based, human. The following applies: Homo sapiens, COLO 320DM, compound overnight (approximately 16 hours). Put shortly:
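Phospho-CHK1 (S345) read by AlphaLisa SureFire in lysates of human colorectal Colo320 DM cells. Compound treatment ran overnight (~16 h, 37 °C, DMSO <0.5%) on cells seeded the day before.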

For the compound `Cc1ccc(F)c([C@@H](C)[C@@H](c2n[nH]c(=O)o2)N2CN(C3CCOCC3)c3nc(Cl)ccc3S2(=O)=O)c1C` [Example 87, 5-((1S,2R)-1-(6-chloro-1,1-dioxido-4-(tetrahydro-2H-pyran-4-yl)-3,4-dihydro-2H-pyrido[2,3-e][1,2,4]thiadiazin-2-yl)-2-(6-fluoro-2,3-dimethylphenyl)propyl)-1,3,4-oxadiazol-2 (3H)-one], the IC50 on RNR (RNR1:RNR2 1:1) is less than 20 nM; in assay [1], not above 1000 nM.

For the compound `Cc1ccc(F)c([C@@H](C)[C@@H](c2n[nH]c(=O)o2)N2CN(CC(F)F)c3cc(Cl)ccc3S2(=O)=O)c1C` [Example 88, 5-((1S,2R)-1-(6-chloro-4-(2,2-difluoroethyl)-1,1-dioxido-3,4-dihydro-2H-benzo[e][1,2,4]thiadiazin-2-yl)-2-(6-fluoro-2,3-dimethylphenyl)propyl)-1,3,4-oxadiazol-2 (3H)-one], the results for the IC50 (on RNR (RNR1:RNR2 1:1); in assay [1]) were less than 20 nM and not above 1000 nM, respectively.

`CC(=O)c1cc(Cl)cc2c1S(=O)(=O)N([C@H](c1n[nH]c(=O)o1)[C@H](C)c1c(F)ccc(C)c1C)CN2C1CC1` [Example 95, 5-((1S,2R)-1-(8-acetyl-6-chloro-4-cyclopropyl-1,1-dioxido-3,4-dihydro-2H-benzo[e][1,2,4]thiadiazin-2-yl)-2-(6-fluoro-2,3-dimethylphenyl)propyl)-1,3,4-oxadiazol-2 (3H)-one]: the figures for the IC50 (against RNR (RNR1:RNR2 1:1); in assay [1]) were less than 20 nM and not above 1000 nM, respectively.

With `Cc1ccc(F)c([C@@H](C)[C@@H](c2n[nH]c(=O)o2)N2CN(C3CN(CC(F)(F)F)C3)c3cc(Cl)ccc3S2(=O)=O)c1C` [Example 96, 5-((1S,2R)-1-(6-chloro-1,1-dioxido-4-(1-(2,2,2-trifluoroethyl)azetidin-3-yl)-3,4-dihydro-2H-benzo[e][1,2,4]thiadiazin-2-yl)-2-(6-fluoro-2,3-dimethylphenyl)propyl)-1,3,4-oxadiazol-2 (3H)-one], the half-inhibitory concentration (IC50) at RNR (RNR1:RNR2 1:1) was less than 20 nM; in assay [1], not above 1000 nM.

Regarding `Cc1ccc(F)c([C@@H](C)[C@@H](c2n[nH]c(=O)o2)N2CN([C@@H]3CCOC[C@H]3F)c3cc(Cl)ccc3S2(=O)=O)c1C` [Example 97, 5-((1S,2R)-1-(6-chloro-4-((3S,4R)-3-fluorotetrahydro-2H-pyran-4-yl)-1,1-dioxido-3,4-dihydro-2H-benzo[e][1,2,4]thiadiazin-2-yl)-2-(6-fluoro-2,3-dimethylphenyl)propyl)-1,3,4-oxadiazol-2 (3H)-one], the IC50 is less than 20 nM against RNR (RNR1:RNR2 1:1) and not above 1000 nM in assay [1].

With `COC(C)(C)CN1CN([C@H](c2n[nH]c(=O)o2)[C@H](C)c2c(F)ccc(C)c2C)S(=O)(=O)c2ccc(Cl)cc21` [Example 98, 5-((1S,2R)-1-(6-chloro-4-(2-methoxy-2-methylpropyl)-1,1-dioxido-3,4-dihydro-2H-benzo[e][1,2,4]thiadiazin-2-yl)-2-(6-fluoro-2,3-dimethylphenyl)propyl)-1,3,4-oxadiazol-2 (3H)-one], the IC50 at RNR (RNR1:RNR2 1:1) was less than 20 nM; in assay [1], not above 1000 nM.

On to `Cc1ccc(F)c([C@@H](C)[C@@H](c2n[nH]c(=O)o2)N2CN([C@@H]3CCN(CC(F)(F)F)C3)c3cc(Cl)ccc3S2(=O)=O)c1C` [Example 99, 5-((1S,2R)-1-(6-chloro-1,1-dioxido-4-((R)-1-(2,2,2-trifluoroethyl)pyrrolidin-3-yl)-3,4-dihydro-2H-benzo[e][1,2,4]thiadiazin-2-yl)-2-(6-fluoro-2,3-dimethylphenyl)propyl)-1,3,4-oxadiazol-2 (3H)-one], for which the IC50 against RNR (RNR1:RNR2 1:1) is 20 to 100 nM; in assay [1], not above 1000 nM.

`Cc1ccc(F)c([C@@H](C)[C@@H](c2n[nH]c(=O)o2)N2CN(C3CC3)c3cc(Cl)cc(C(C)Cl)c3S2(=O)=O)c1C` (stereo partly drawn) [Example 100, 5-((1S,2R)-1-(6-chloro-8-(1-chloroethyl)-4-cyclopropyl-1,1-dioxido-3,4-dihydro-2H-benzo[e][1,2,4]thiadiazin-2-yl)-2-(6-fluoro-2,3-dimethylphenyl)propyl)-1,3,4-oxadiazol-2 (3H)-one]: the values for the IC50 (against RNR (RNR1:RNR2 1:1); in assay [1]) were 20 to 100 nM and 1000 to 5000 nM, respectively.

`Cc1ccc(F)c([C@@H](C)[C@@H](c2n[nH]c(=O)o2)N2CN([C@H]3CCN(CC(F)(F)F)C3)c3cc(Cl)ccc3S2(=O)=O)c1C` [Example 101, 5-((1S,2R)-1-(6-chloro-1,1-dioxido-4-((S)-1-(2,2,2-trifluoroethyl)pyrrolidin-3-yl)-3,4-dihydro-2H-benzo[e][1,2,4]thiadiazin-2-yl)-2-(6-fluoro-2,3-dimethylphenyl)propyl)-1,3,4-oxadiazol-2 (3H)-one]: the figures for the IC50 (at RNR (RNR1:RNR2 1:1); in assay [1]) were 20 to 100 nM and 1000 to 5000 nM, respectively.

As for `CC(=O)c1cc(Cl)cc2c1S(=O)(=O)N([C@H](c1n[nH]c(=O)o1)[C@H](C)c1c(F)ccc(C)c1C)CO2` [Example 102, 5-((1S,2R)-1-(8-acetyl-6-chloro-1,1-dioxidobenzo[e][1,4,3]oxathiazin-2 (3H)-yl)-2-(6-fluoro-2,3-dimethylphenyl)propyl)-1,3,4-oxadiazol-2 (3H)-one], the IC50 at RNR (RNR1:RNR2 1:1) was less than 20 nM; in assay [1] it was not above 1000 nM.

For the compound `CC(=O)c1cc(Cl)cc2c1S(=O)(=O)N([C@H](c1n[nH]c(=O)o1)[C@@H](C)c1c(F)ccc(C)c1C)CO2` [Example 103, 5-((1S,2S)-1-(8-acetyl-6-chloro-1,1-dioxidobenzo[e][1,4,3]oxathiazin-2 (3H)-yl)-2-(6-fluoro-2,3-dimethylphenyl)propyl)-1,3,4-oxadiazol-2 (3H)-one], the IC50 fell in the range of 1000 to 10000 nM against RNR (RNR1:RNR2 1:1) and 5000 to 10000 nM in assay [1].

With `Cc1ccc(F)c([C@@H](C)[C@@H](c2n[nH]c(=O)o2)N2CN([C@@H]3CCN(CCF)C3)c3cc(Cl)ccc3S2(=O)=O)c1C` [Example 104, 5-((1S,2R)-1-(6-chloro-4-((R)-1-(2-fluoroethyl)pyrrolidin-3-yl)-1,1-dioxido-3,4-dihydro-2H-benzo[e][1,2,4]thiadiazin-2-yl)-2-(6-fluoro-2,3-dimethylphenyl)propyl)-1,3,4-oxadiazol-2 (3H)-one], the IC50 was less than 20 nM at RNR (RNR1:RNR2 1:1) and not above 1000 nM in assay [1].

Consider `Cc1ccc(F)c([C@@H](C)[C@@H](c2n[nH]c(=O)o2)N2CN(CCN3CCN(C)CC3)c3cc(Cl)ccc3S2(=O)=O)c1C` [Example 105, 5-((1S,2R)-1-(6-chloro-4-(2-(4-methylpiperazin-1-yl)ethyl)-1,1-dioxido-3,4-dihydro-2H-benzo[e][1,2,4]thiadiazin-2-yl)-2-(6-fluoro-2,3-dimethylphenyl)propyl)-1,3,4-oxadiazol-2 (3H)-one], for which the values for the IC50 (against RNR (RNR1:RNR2 1:1); in assay [1]) were less than 20 nM and 1000 to 5000 nM, respectively.

`Cc1ccc(F)c([C@@H](C)[C@@H](c2n[nH]c(=O)o2)N2CN([C@H]3CCN(CCF)C3)c3cc(Cl)ccc3S2(=O)=O)c1C` [Example 106, 5-((1S,2R)-1-(6-chloro-4-((S)-1-(2-fluoroethyl)pyrrolidin-3-yl)-1,1-dioxido-3,4-dihydro-2H-benzo[e][1,2,4]thiadiazin-2-yl)-2-(6-fluoro-2,3-dimethylphenyl)propyl)-1,3,4-oxadiazol-2 (3H)-one]: the IC50 against RNR (RNR1:RNR2 1:1) is less than 20 nM; in assay [1], not above 1000 nM.

Source of the values: patent US20260085067A1, “CYCLIC SULFONAMIDE RIBONUCLEOTIDE REDUCTASE (RNR) INHIBITORS AND USES THEREOF” (Boundless Bio, Inc., priority 2022, published 2026).
